According to patent publication US8575091B1, “Amylin analogues and pharmaceutical compositions thereof” (Novo Nordisk A/S, priority 2012, dated 2013):
Numbered stars: 1 amine (or outer) side, 2 acyl side, 3 side chain; on linkers, the order of the positions; unused ones are H or OH. Bridge positions count the residues as written; N and C are the ends. Side chains are listed from the residue outwards. Peptide text beside a SMILES is read from it. * marks the point of attachment. C20 diacid = O=C(O)CCCCCCCCCCCCCCCCCCC(=O)*; γGlu = O=C(O)[C@H](CCC(=O)[*:2])N[*:1]

Legend:
[1] = molecular target: T1, human amylin receptor (amylin 3(a) receptor: human calcitonin receptor + RAMP-3) (Homo sapiens, UniProt O60896+P30988); assay: Assay (II)a functional assay, human amylin receptor (CRE luciferase, BHK cells); assay type: cell-based
T1 construct: expressed in transfected cells
T1 sequence (P30988 25-474): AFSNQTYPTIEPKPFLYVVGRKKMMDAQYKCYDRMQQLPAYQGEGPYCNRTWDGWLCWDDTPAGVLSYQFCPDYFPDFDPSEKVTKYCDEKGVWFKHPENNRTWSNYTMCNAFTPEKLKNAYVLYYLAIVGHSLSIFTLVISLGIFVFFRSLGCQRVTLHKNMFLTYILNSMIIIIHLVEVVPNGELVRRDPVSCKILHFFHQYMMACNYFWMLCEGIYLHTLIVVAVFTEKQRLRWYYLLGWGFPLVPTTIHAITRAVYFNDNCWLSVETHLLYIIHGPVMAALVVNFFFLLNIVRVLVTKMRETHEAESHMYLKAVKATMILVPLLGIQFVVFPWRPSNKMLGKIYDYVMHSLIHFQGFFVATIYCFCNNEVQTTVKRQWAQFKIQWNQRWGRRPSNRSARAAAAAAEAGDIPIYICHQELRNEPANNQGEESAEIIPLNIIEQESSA
T1 sequence (O60896 24-148 partner): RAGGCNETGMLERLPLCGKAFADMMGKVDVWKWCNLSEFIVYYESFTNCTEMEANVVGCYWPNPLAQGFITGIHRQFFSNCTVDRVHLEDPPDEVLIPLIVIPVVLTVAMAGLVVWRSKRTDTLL

human amylin receptor = molecular target: T2, human amylin receptor (Homo sapiens, UniProt O60896+P30988); assay: Assay (V) binding to the human amylin receptor (SPA, 125I-rat amylin)
T2 construct: expressed in transfected cells
T2 sequence (P30988 25-474): T1 sequence (P30988 25-474)
T2 sequence (O60896 24-148 partner): T1 sequence (O60896 24-148 partner)
Procedure: The binding assay was performed using scintillation proximity assay (SPA) beads (RPNQ0001) from PerkinElmer and cell membranes from the Amylin 3(a)/CRE-luc cells (as described in Assay (II)) were used. Membranes were prepared in the following way; the cells were rinsed with PBS and incubated with Versene for approximately 5 min before harvesting. The cells were flushed with PBS and the cell-suspension was centrifuged for 5 min at 1000 rpm. […] The resulting pellet was resuspended in buffer 2 and protein concentration was measured (BCA protein Assay, Pierce). The homogenate was kept cold during the whole procedure. The membranes were kept at −80° C. until use. The assay was performed in a 384 well Optiplate (PerkinElmer) in a total volume of 40 ul. Membranes were mixed with SPA beads. Final concentration of membranes 35 ng/μL final and SPA beads was 0.05 mg/well. Test-compounds were dissolved in DMSO and further diluted in assay buffer (50 mM Hepes, pH 7.4, 1 mM CaCl2, 5 mM MgCl2, 0.1% OA and 0.02% Tween20). […] Samples were analyzed on TopCounter™ (Packard). The IC50 was calculated using (one site binding competition analysis) GraphPad Prism5 as a measure of receptor affinity.

[2] = Table 6, human functional selectivity (hCTR EC50 / hAmylin-R EC50)
[3] = human binding ratio, included for comparison
[4] = Table 6a, human functional selectivity (hCTR EC50 / hAmylin-R EC50), at least 5

| SMILES | Ratio hCT/hAmylin funct. [1, 2] | Ratio hCT/hAmylin binding (human amylin receptor; [3]) | Ratio hCT/hAmylin funct. ([1]; hCTR funct. EC50 divided by hAmylin-R funct. EC50) | Ratio hCT/hAmylin funct. [1, 4] | Ratio hCT/hAmylin funct. ([1]; Table 6i, hCTR funct. EC50 / hAmylin-R funct. EC50) | Ratio hCT/hAmylin binding (human amylin receptor; Table 7b, human calcitonin receptor binding IC50 divided by human amylin receptor binding IC50) | Ratio hCT/hAmylin binding (human amylin receptor; Table 7c, human calcitonin receptor binding IC50 divided by human amylin receptor binding IC50) |
| --- | --- | --- | --- | --- | --- | --- | --- |
| CC[C@H](C)[C@H](NC(=O)[C@H](C)NC(=O)CNC(=O)[C@H](Cc1ccccc1)NC(=O)[C@H](CC(N)=O)NC(=O)[C@@H]1CCCN1C(=O)[C@H](CO)NC(=O)[C@H](CO)NC(=O)[C@H](Cc1c[nH]cn1)NC(=O)[C@H](CCCNC(=N)N)NC(=O)[C@H](CC(C)C)NC(=O)[C@H](Cc1ccccc1)NC(=O)[C@H](CC(=O)O)NC(=O)[C@H](C)NC(=O)[C@H](CC(C)C)NC(=O)[C@H](CCCNC(=N)N)NC(=O)[C@H](CCC(N)=O)NC(=O)[C@@H](NC(=O)[C@H](C)NC(=O)[C@@H]1CSSC[C@H](NC(=O)[C@H](CCCCN)NC(=O)CC[C@H](NC(=O)CCCCCCCCCCCCCCCCCCC(=O)O)C(=O)O)C(=O)N[C@@H](CC(N)=O)C(=O)N[C@@H]([C@@H](C)O)C(=O)N[C@@H](C)C(=O)N[C@@H]([C@@H](C)O)C(=O)N1)[C@@H](C)O)C(=O)N1CCC[C@H]1C(=O)N[C@@H](CO)C(=O)N[C@@H](CO)C(=O)N[C@H](C(=O)N[C@@H](CC(N)=O)C(=O)N[C@H](C(=O)NCC(=O)N[C@@H](CO)C(=O)N[C@@H](CC(N)=O)C(=O)N[C@H](C(=O)N1CCC[C@H]1C(N)=O)[C@@H](C)O)C(C)C)[C@@H](C)O [Example 10] ({C20 diacid-γGlu}-KCNTATCATQRLADFLRHSSPNFGAIPSSTNVGSNTP-NH2; disulfide 2-7) | 1.0 | 1.2 |  |  |  |  |  |
| CC[C@H](C)[C@H](NC(=O)[C@H](C)NC(=O)CNC(=O)[C@H](Cc1ccccc1)NC(=O)[C@H](CC(N)=O)NC(=O)[C@@H]1CCCN1C(=O)[C@H](CO)NC(=O)[C@H](CO)NC(=O)[C@H](Cc1c[nH]cn1)NC(=O)[C@H](CCCNC(=N)N)NC(=O)[C@H](CC(C)C)NC(=O)[C@H](Cc1ccccc1)NC(=O)[C@H](CCC(=O)O)NC(=O)[C@H](C)NC(=O)[C@H](CC(C)C)NC(=O)[C@H](CCCNC(=N)N)NC(=O)[C@H](CCC(N)=O)NC(=O)[C@@H](NC(=O)[C@H](C)NC(=O)[C@@H]1CSSC[C@H](NC(=O)[C@H](CCCCN)NC(=O)CC[C@H](NC(=O)CCCCCCCCCCCCCCCCCCC(=O)O)C(=O)O)C(=O)N[C@@H](CC(N)=O)C(=O)N[C@@H]([C@@H](C)O)C(=O)N[C@@H](C)C(=O)N[C@@H]([C@@H](C)O)C(=O)N1)[C@@H](C)O)C(=O)N[C@@H](CC(C)C)C(=O)N1CCC[C@H]1C(=O)N[C@@H](CO)C(=O)N[C@H](C(=O)N[C@@H](CC(N)=O)C(=O)N[C@H](C(=O)NCC(=O)N[C@@H](CO)C(=O)N[C@@H](CCC(=O)O)C(=O)N[C@H](C(=O)N[C@@H](Cc1ccc(O)cc1)C(N)=O)[C@@H](C)O)C(C)C)[C@@H](C)O [Example 33] ({C20 diacid-γGlu}-KCNTATCATQRLAEFLRHSSPNFGAILPSTNVGSETY-NH2; disulfide 2-7) | 2.2 | 3.9 | 2.2 |  |  |  |  |
| CC[C@H](C)[C@H](NC(=O)[C@H](C)NC(=O)CNC(=O)[C@H](Cc1ccccc1)NC(=O)[C@H](CC(N)=O)NC(=O)[C@H](CCCCNC(=O)CC[C@H](NC(=O)CC[C@H](NC(=O)CCCCCCCCCCCCCCCCCCC(=O)O)C(=O)O)C(=O)O)NC(=O)[C@H](CO)NC(=O)[C@H](CO)NC(=O)[C@H](Cc1c[nH]cn1)NC(=O)[C@H](CCCNC(=N)N)NC(=O)[C@H](CC(C)C)NC(=O)[C@H](Cc1ccccc1)NC(=O)[C@H](CC(=O)O)NC(=O)[C@H](C)NC(=O)[C@H](CC(C)C)NC(=O)[C@H](CCCNC(=N)N)NC(=O)[C@H](CCC(N)=O)NC(=O)[C@@H](NC(=O)[C@H](C)NC(=O)[C@@H]1CSSC[C@H](NC(=O)[C@@H](N)CCCCN)C(=O)N[C@@H](CC(N)=O)C(=O)N[C@@H]([C@@H](C)O)C(=O)N[C@@H](C)C(=O)N[C@@H]([C@@H](C)O)C(=O)N1)[C@@H](C)O)C(=O)N1CCC[C@H]1C(=O)N[C@@H](CO)C(=O)N[C@@H](CO)C(=O)N[C@H](C(=O)N[C@@H](CC(N)=O)C(=O)N[C@H](C(=O)NCC(=O)N[C@@H](CO)C(=O)N[C@@H](CC(=O)O)C(=O)N[C@H](C(=O)N[C@@H](Cc1ccc(O)cc1)C(N)=O)[C@@H](C)O)C(C)C)[C@@H](C)O [Example 59] (H-KCNTATCATQRLADFLRHSSK([γGlu-γGlu-C20 diacid])NFGAIPSSTNVGSDTY-NH2; disulfide 2-7; N-terminus assumed) | 5.0 | 4.3 |  | 5.0 |  |  |  |
| CC[C@H](C)[C@H](NC(=O)[C@H](C)NC(=O)CNC(=O)[C@H](Cc1ccccc1)NC(=O)[C@H](CC(N)=O)NC(=O)[C@@H]1CCCN1C(=O)[C@H](CO)NC(=O)[C@H](CO)NC(=O)[C@H](Cc1c[nH]cn1)NC(=O)[C@H](CCCNC(=N)N)NC(=O)[C@H](CC(C)C)NC(=O)[C@H](Cc1ccccc1)NC(=O)[C@H](CCC(=O)O)NC(=O)[C@H](C)NC(=O)[C@H](CC(C)C)NC(=O)[C@H](CCCNC(=N)N)NC(=O)[C@H](CCC(N)=O)NC(=O)[C@@H](NC(=O)[C@H](C)NC(=O)[C@@H]1CSSC[C@H](NC(=O)[C@H](CCCCN)NC(=O)CC[C@H](NC(=O)CCCCCCCCCCCCCCCCCCC(=O)O)C(=O)O)C(=O)N[C@@H](CC(N)=O)C(=O)N[C@@H]([C@@H](C)O)C(=O)N[C@@H](C)C(=O)N[C@@H]([C@@H](C)O)C(=O)N1)[C@@H](C)O)C(=O)N1CCC[C@H]1C(=O)N[C@@H](CO)C(=O)N[C@@H](CO)C(=O)N[C@H](C(=O)N[C@@H](CC(N)=O)C(=O)N[C@H](C(=O)NCC(=O)N[C@@H](CO)C(=O)N[C@@H](CC(=O)O)C(=O)N[C@H](C(=O)N1CCC[C@H]1C(N)=O)[C@@H](C)O)C(C)C)[C@@H](C)O [Example 11] ({C20 diacid-γGlu}-KCNTATCATQRLAEFLRHSSPNFGAIPSSTNVGSDTP-NH2; disulfide 2-7) | 0.9 | 1.0 |  |  |  |  |  |
| CC[C@H](C)[C@H](NC(=O)[C@@H]1CCCN1C(=O)CNC(=O)[C@H](Cc1ccccc1)NC(=O)[C@H](CC(N)=O)NC(=O)[C@@H]1CCCN1C(=O)[C@H](CO)NC(=O)[C@H](CO)NC(=O)[C@H](Cc1c[nH]cn1)NC(=O)[C@H](CCCNC(=N)N)NC(=O)[C@H](CC(C)C)NC(=O)[C@H](Cc1ccccc1)NC(=O)[C@H](CCC(=O)O)NC(=O)[C@H](C)NC(=O)[C@H](CC(C)C)NC(=O)[C@H](CCCNC(=N)N)NC(=O)[C@H](CCC(N)=O)NC(=O)[C@@H](NC(=O)[C@H](C)NC(=O)[C@@H]1CSSC[C@H](NC(=O)[C@H](CCCCN)NC(=O)CC[C@H](NC(=O)CCCCCCCCCCCCCCCCCCC(=O)O)C(=O)O)C(=O)N[C@@H](CC(N)=O)C(=O)N[C@@H]([C@@H](C)O)C(=O)N[C@@H](C)C(=O)N[C@@H]([C@@H](C)O)C(=O)N1)[C@@H](C)O)C(=O)N[C@@H](CC(C)C)C(=O)N1CCC[C@H]1C(=O)N1CCC[C@H]1C(=O)N[C@H](C(=O)N[C@@H](CC(N)=O)C(=O)N[C@H](C(=O)NCC(=O)N[C@@H](CO)C(=O)N[C@@H](CC(N)=O)C(=O)N[C@H](C(=O)N[C@@H](Cc1ccc(O)cc1)C(N)=O)[C@@H](C)O)C(C)C)[C@@H](C)O [Example 6] ({C20 diacid-γGlu}-KCNTATCATQRLAEFLRHSSPNFGPILPPTNVGSNTY-NH2; disulfide 2-7) | 5.7 | 20.0 |  | 5.7 | 5.7 | 20.0 | 20.0 |
